The values that follow come from US20240091227A1, “Use Of 2-Phenyl-6-(1H-Imidazol-1-YL) Quinazoline For Treating Neurodegenerative Diseases, Preferably Alzheimer's Disease” (ROTTAPHARM BIOTECH S.R.L., priority 2019, published 2024).

For one assay, the system named is TNFα. Nature of the assay: TNFα gene expression in IL-1β-stimulated U373 MG astrocytoma cells (RT-PCR). It counts as cell-based, human. To be noted: IL-1β 2 ng/ml. How it is done: A model of astrocytes, the human glioblastoma astrocytoma cell line U373 MG (Uppsala), was used for these experiments. Adherent cells were grown in DMEM medium supplemented with 10% FBS at 37° C. with CO2. 72 hours after plating, cells were treated for 1 h with 2-phenyl-6-(1H-imidazol-1-yl)quinazoline (CR4056) (10 μM) prepared according to EP2066653 and then stimulated with the pro-inflammatory cytokine IL-1β (2 ng/mL) for further 6 and 24 h.
At the end of incubation period, total RNA was obtained and retro-transcribed using the High-Capacity cDNA Reverse Transcription Kit (Thermo Fisher Scientific). The levels of expression of COX-2, IL-1β, IL-6 and TNFα were evaluated by RT-PCR analysis, performed using the Applied Biosystems 7500 Fast Real-Time PCR System using specific TaqMan assays and, as an endogenous control, the 18S Pre-Developed TaqMan® Assay (Thermo Fisher Scientific). The data analysis, with normalisation on 18S amplified values, was according to Thermo Fisher Scientific specific instructions for gene expression relative quantification. All individual data were the result of at least three different measurements for each sample.
Percentage of gene expression inhibition observed in U373 cells stimulated with IL-1β 2 ng/ml and exposed to 10 μM CR4056 for the indicated time.

Assay [1] has as its system Rats treated with scopolamine. Nature of the assay: Passive avoidance in scopolamine-induced memory impairment. The class given is in vivo, rat. How it is done:
FIG. 3 reports results of a passive avoidance test in the model of scopolamine-induced memory loss. Rats treated with scopolamine (Sco, 1 mg/kg) or physiological solution (Sal) received CR4056 10 mg/kg bid or its vehicle (MC). t student test. *p<0.05; **P<0.01 (n=6).
Scopolamine, a nonselective muscarinic receptor antagonist, produces a blocking of the activity of the muscarinic acetylcholine receptor, and the concomitant appearance of transient cognitive amnesia and electrophysiological changes, which resemble those observed in Alzheimer's disease. Therefore, scopolamine administration may be considered as a psychopharmacological model of Alzheimer's disease (Lenz R A, Psychopharmacology (Berl), 2012). Passive avoidance is a behavioural model of memory impairment.
The apparatus consisted of a two-compartment box: light and dark compartments separated by a door. The rat was placed in the center of the light compartment, with the door between two compartments closed. After 4 seconds, the door was opened and the latency time, i.e., the time taken by the rat to enter all four paws into the dark compartment was recorded.
Once the rat moved completely in the dark compartment, the door was closed and immediately a mild foot shock was delivered through the grid floor. Thus, during the initial phase the animal learned that the moving to the dark compartment had negative consequences. […]

Assay [2] relates to Rats treated with scopolamine. Nature of the assay: Morris water maze in scopolamine-induced memory impairment. The class given is in vivo, rat. To be noted: scopolamine 1 mg/kg sc, CR4056 20 mg/kg os, mean over four days. How it is done:
FIG. 4 reports the results of the Morris Water Maze test in the model of scopolamine-induced memory loss. Rats treated with scopolamine (Sco, 1 mg/kg) or physiological solution (Sal) received CR4056 20 mg/kg/die or its vehicle (MC). Data represented the mean time spent to reach the hidden platform over four days. Two way ANOVA. Tukey Comparison test. ** P<0.01.
The Morris water maze test was used to evaluate cognitive function distinct in two phases: first, the acquisition and spatial localization of a hidden platform and, subsequently, the processing, consolidating, retaining and then retrieving the acquired information to successfully locate the platform to escape the water.
Place navigation required the rats to learn to swim from any starting position to the escape platform, thereby acquiring a long-term memory of the platform's spatial location. Animals were placed into various quadrants of the pool and the time elapsed and the distance traversed to reach the hidden platform was recorded. Various objects were placed in the testing room so that the animals used these visual cues as a means of navigating in the Maze. After repeated entry into the Maze, the animals became more and more efficient at locating the platform, thus escaping the water by learning the location of the platform relative to the distal visual cues. […]

The next assay relates to Transgenic 5XFAD mice. Nature of the assay: Novel object recognition in transgenic 5XFAD mice model of Alzheimer's disease. The class given is in vivo, mouse. To be noted: 30 mg/kg orally once a day for 10 days. From the text:
FIG. 6 reports the results of Novel Object Recognition test in transgenic 5XFAD mice model of Alzheimer disease. (Obj C=new object) *p<0.0001, unpaired t Student test.
Transgenic 5XFAD mice, overexpressing the human amyloid precursor protein (APP695) with Swedish (K670N/M671L), Florida (I716V) and London (V717I) familial Alzheimer's disease (FAD) mutations, as well as human Presenilin1 (PS1) with M146L and L286V FAD mutations were used as Alzheimer's disease model. 6 months old female transgenic 5XFAD mice and wild-type controls (WT) were treated orally (gavage) with 30 mg/kg of CR4056 or vehicle once a day for a period of 10 days (n=4 WT/Vehicle, 8 WT/CR4056, 2 5XFAD/Vehicle, and 3 5XFAD/CR4056). Following repeated treatments, hippocampal-dependent memory was tested using the novel object recognition task. The object recognition test measures working and spatial memory. In the training phase, animals were placed in the arena with objects constructed from large plastic bricks. In the testing phase, one object was replaced by a novel object. Animals were returned in the arena and allowed to explore. Exploration of objects was observed and recorded. Mice should recognize that a new object has been placed and therefore explore this object for longer time.

With `c1ccc(-c2ncc3cc(-n4ccnc4)ccc3n2)cc1` [CR4056, 2-phenyl-6-(1H-imidazol-1-yl)quinazoline], the “Percentage of gene expression inhibition, TNF-α” value in the assay on TNFα (10 μM CR4056, 6 h) is on record as “not yet modulated”; in the assay on TNFα (10 μM CR4056, 24 h), 52%. Besides, the “Escape latency time, passive avoidance, sham animals” value in assay [1] (rats not treated with scopolamine, CR4056 10 mg/kg bid vs vehicle (MC)) was “not different from its vehicle”. For the same molecule, the “Escape latency time, passive avoidance, scopolamine-treated animals” value in assay [1] (rats, scopolamine 1 mg/kg sc, CR4056 10 mg/kg bid orally) is given as “counteracted the memory impairment”. In addition, the “Time to reach the hidden platform, Morris water maze” value in assay [2] was “significantly reduced the time taken to get to the platform”. Also, the “Working and spatial memory, novel object recognition” value in the assay with Transgenic 5XFAD mice was “significant improvement in the working and spatial memory”.
